Experimental data published in PubChem BioAssay (NCI).
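Growth conditions: 96-well plates. Treatment: test compound, 48 hours, 5 concentrations. Analysis: linear interpolation between bracketing concentrations; unreached endpoints set to highest concentration. GI50 = concentration required for 50% inhibition of growth. TGI: concentration producing complete growth inhibition.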

What was measured:
Experiment in all cases: inhibition of tumour cell growth, NCI panel, 48 h
TK-10 renal = test system: TK-10 renal
DU-145 prostate = test system: DU-145 prostate
BT-549 breast = test system: BT-549 breast
HOP-62 NSCLC = test system: HOP-62 NSCLC
T-47D breast = test system: T-47D breast
MOLT-4 leukemia = test system: MOLT-4 leukemia
SR leukemia = test system: SR leukemia
HOP-92 NSCLC = test system: HOP-92 NSCLC
SK-MEL-5 melanoma = test system: SK-MEL-5 melanoma
NCI-H226 lung = test system: NCI-H226 lung
OVCAR-4 ovarian = test system: OVCAR-4 ovarian
HCC-2998 colon = test system: HCC-2998 colon
PC-3 prostate = test system: PC-3 prostate
NCI-H522 lung = test system: NCI-H522 lung
SK-MEL-28 melanoma = test system: SK-MEL-28 melanoma
UO-31 renal = test system: UO-31 renal
SW-620 colon = test system: SW-620 colon
HS 578T breast = test system: HS 578T breast
A549 NSCLC = test system: A549 NSCLC
UACC-62 melanoma = test system: UACC-62 melanoma
SN12C renal = test system: SN12C renal
HL-60(TB) leukemia = test system: HL-60(TB) leukemia
COLO 205 colon = test system: COLO 205 colon
OVCAR-3 ovarian = test system: OVCAR-3 ovarian
SK-OV-3 ovarian = test system: SK-OV-3 ovarian
KM12 colon = test system: KM12 colon
MCF7 breast = test system: MCF7 breast
CCRF-CEM leukemia = test system: CCRF-CEM leukemia
SF-295 CNS = test system: SF-295 CNS
IGROV1 ovarian = test system: IGROV1 ovarian
SF-268 CNS = test system: SF-268 CNS
OVCAR-5 ovarian = test system: OVCAR-5 ovarian
NCI/ADR-RES ovarian = test system: NCI/ADR-RES ovarian
NCI-H460 lung = test system: NCI-H460 lung
SF-539 CNS = test system: SF-539 CNS
SNB-19 CNS = test system: SNB-19 CNS
A498 renal = test system: A498 renal
ACHN renal = test system: ACHN renal
U251 CNS = test system: U251 CNS
NCI-H23 lung = test system: NCI-H23 lung
K-562 leukemia = test system: K-562 leukemia
EKVX NSCLC = test system: EKVX NSCLC
CAKI-1 renal = test system: CAKI-1 renal
SNB-75 CNS = test system: SNB-75 CNS
M14 melanoma = test system: M14 melanoma
MDA-MB-468 breast = test system: MDA-MB-468 breast
MDA-MB-231 breast = test system: MDA-MB-231 breast
786-0 renal = test system: 786-0 renal
HCT-15 colon = test system: HCT-15 colon
HCT-116 colon = test system: HCT-116 colon
RPMI-8226 leukemia = test system: RPMI-8226 leukemia
MDA-MB-435 = test system: MDA-MB-435
OVCAR-8 ovarian = test system: OVCAR-8 ovarian
SK-MEL-2 melanoma = test system: SK-MEL-2 melanoma
RXF 393 renal = test system: RXF 393 renal
MALME-3M melanoma = test system: MALME-3M melanoma
UACC-257 melanoma = test system: UACC-257 melanoma

## O=C1CCC(N2C(=O)c3cccc(NCCCCCC(=O)N4CCN(c5ccc6nc7c(nc6c5C(F)(F)F)C(=O)c5ncccc5C7=O)CC4)c3C2=O)C(=O)N1 (centres undefined)
TK-10 renal
  GI50: 1920 nM
  TGI: 5670 nM
DU-145 prostate
  GI50: 163 nM
  TGI: 398 nM
BT-549 breast
  GI50: 244 nM
  TGI: 1460 nM
HOP-62 NSCLC
  GI50: 321 nM
  TGI: 1400 nM
T-47D breast
  GI50: 1560 nM
  TGI: 5290 nM
MOLT-4 leukemia
  GI50: 1500 nM
  TGI: > 17800 nM
SR leukemia
  GI50: 227 nM
  TGI: > 70500 nM
HOP-92 NSCLC
  GI50: 1200 nM
  TGI: 5810 nM
SK-MEL-5 melanoma
  GI50: 296 nM
  TGI: 1040 nM
NCI-H226 lung
  GI50: 160 nM
  TGI: 1100 nM
OVCAR-4 ovarian
  GI50: 1490 nM
  TGI: 4830 nM
HCC-2998 colon
  GI50: 275 nM
  TGI: 1040 nM
PC-3 prostate
  GI50: 376 nM
  TGI: > 19000 nM
NCI-H522 lung
  GI50: 1020 nM
  TGI: 2200 nM
SK-MEL-28 melanoma
  GI50: 386 nM
  TGI: 1290 nM
UO-31 renal
  GI50: 892 nM
  TGI: 1810 nM
SW-620 colon
  GI50: 368 nM
  TGI: 1810 nM
HS 578T breast
  GI50: 946 nM
  TGI: 3920 nM
A549 NSCLC
  GI50: 193 nM
  TGI: 712 nM
UACC-62 melanoma
  GI50: 529 nM
  TGI: 1540 nM
SN12C renal
  GI50: 192 nM
  TGI: 738 nM
HL-60(TB) leukemia
  GI50: 919 nM
  TGI: > 18800 nM
COLO 205 colon
  GI50: 175 nM
  TGI: 475 nM
OVCAR-3 ovarian
  GI50: 1190 nM
  TGI: 3210 nM
SK-OV-3 ovarian
  GI50: 768 nM
  TGI: 2200 nM
KM12 colon
  GI50: 1430 nM
  TGI: 3590 nM
MCF7 breast
  GI50: 197 nM
  TGI: 705 nM
CCRF-CEM leukemia
  GI50: 1970 nM
  TGI: > 70500 nM
SF-295 CNS
  GI50: 150 nM
  TGI: 384 nM
IGROV1 ovarian
  GI50: 827 nM
  TGI: 1830 nM
SF-268 CNS
  GI50: 1360 nM
  TGI: 5050 nM
OVCAR-5 ovarian
  GI50: 1010 nM
  TGI: 2170 nM
NCI/ADR-RES ovarian
  GI50: 2070 nM
  TGI: 20800 nM
NCI-H460 lung
  GI50: 141 nM
  TGI: 287 nM
SF-539 CNS
  GI50: 1000 nM
  TGI: 1950 nM
SNB-19 CNS
  GI50: 149 nM
  TGI: 393 nM
A498 renal
  GI50: 1200 nM
  TGI: 2290 nM
ACHN renal
  GI50: 1090 nM
  TGI: 2530 nM
U251 CNS
  GI50: 177 nM
  TGI: 577 nM
NCI-H23 lung
  GI50: 138 nM
  TGI: 315 nM
K-562 leukemia
  GI50: 1010 nM
  TGI: > 70500 nM
EKVX NSCLC
  GI50: 1300 nM
  TGI: 3920 nM
CAKI-1 renal
  GI50: 889 nM
  TGI: 2200 nM
SNB-75 CNS
  GI50: 743 nM
  TGI: 1590 nM
M14 melanoma
  GI50: 130 nM
  TGI: 292 nM
MDA-MB-468 breast
  GI50: 1180 nM
  TGI: 2680 nM
MDA-MB-231 breast
  GI50: 23.4 nM
  TGI: 2500 nM
786-0 renal
  GI50: 1590 nM
  TGI: 4580 nM
HCT-15 colon
  GI50: 81.9 nM
  TGI: 813 nM
HCT-116 colon
  GI50: 1780 nM
  TGI: 4620 nM
RPMI-8226 leukemia
  GI50: 741 nM
  TGI: 4540 nM
MDA-MB-435
  GI50: 555 nM
  TGI: 1540 nM
OVCAR-8 ovarian
  GI50: 1300 nM
  TGI: 3670 nM
SK-MEL-2 melanoma
  GI50: 1030 nM
  TGI: 2160 nM
RXF 393 renal
  GI50: 981 nM
  TGI: 2060 nM
MALME-3M melanoma
  GI50: 76.2 nM
  TGI: 541 nM
UACC-257 melanoma
  GI50: 1060 nM
  TGI: 2170 nM
